Experimental data published in patent US7138361B2, “Herbicidal heterocycles” (E. I. du Pont de Nemours and Company, priority 2000, dated 2006).

Columns and labels:
Type in all cases: in vivo
[1] = test system: velvetleaf (Abutilon theophrasti); assay: Test C preemergence; details: preemergence
Excerpt: (§1) Seeds of plant species selected from bermudagrass (Cynodon dactylon), Surinam grass (Brachiaria decumbens), cocklebur (Xanthium strumarium), corn (Zea mays), crabgrass (Digitaria sanguinalis), woolly cupgrass (Eriochloa villosa), giant foxtail (Setaria faberii), goosegrass (Eleusine indica), johnsongrass (Sorghum halepense), kochia (Kochia scoparia), lambsquarters (Chenopodium album), morningglory (Ipomoea hederacea), yellow nutsedge (Cyperus esculentus), pigweed (Amaranthus retroflexus), common ragweed (Ambrosia elatior), soybean (Glycine max) and velvetleaf (Abutilon theophrasti) were planted and treated preemergence with test chemicals formulated in a non-phytotoxic solvent mixture which included a surfactant.
(§2) At the same time, plants selected from these crop and weed species and also winter barley (Hordeum vulgare), blackgrass (Alopecurus myosuroides), canary grass (Phalaris minor), chickweed (Stellaria media), downy brome (Bromus tectorum), green foxtail (Setaria viridis), Italian ryegrass (Lolium multiflorum), wheat (Triticum aestivum), wild oat (Avena fatua) and windgrass (Apera spica-venti) were treated with postemergence applications of some of the test chemicals formulated in the same manner. Plants ranged in height from 2 to 18 cm (1- to 4-leaf stage) for postemergence treatments. Plant species in the flooded paddy test consisted of rice (Oryza saliva), smallflower flatsedge (Cyperus difformis), duck salad (Heteranthera limosa) and barnyardgrass (Echinochloa crus-galli) grown to the 2-leaf stage for testing. Treated plants and controls were maintained in a greenhouse for 12 to 14 days, after which time all species were compared to controls and visually evaluated. Plant response ratings, summarized in Table C, are based on a scale of 0 to 100 where 0 is no effect and 100 is complete control. A dash (-) response means no test result.

[2] = test system: kochia (Kochia scoparia); assay: Test C preemergence; details: for Plant response rating (0 to 100), Kochia: visual evaluation after 12 to 14 days
Excerpt: as §1, §2

[3] = test system: cocklebur (Xanthium strumarium); assay: Test C preemergence; details: for Plant response rating (0 to 100), Cocklebur: visual evaluation after 12 to 14 days
Excerpt: as §1, §2

[4] = test system: woolly cupgrass (Eriochloa villosa); assay: Test C preemergence; details: for Plant response rating (0 to 100), Cupgrass, Woolly: visual evaluation after 12 to 14 days
Excerpt: as §1, §2

[5] = test system: bermudagrass (Cynodon dactylon); assay: Test C preemergence; details: for Plant response rating (0 to 100 where 0 is no effect and 100 is complete control), Bermudagrass: visual evaluation after 12 to 14 days
Excerpt: as §1, §2

[6] = test system: lambsquarters (Chenopodium album); assay: Test C preemergence; details: for Plant response rating, Lambsquarters: scale 0 to 100, 0 no effect, 100 complete control
Excerpt: as §1, §2

[7] = test system: soybean (Glycine max); assay: Test C preemergence; details: preemergence
Excerpt: as §1, §2

[8] = test system: giant foxtail (Setaria faberii); assay: Test C preemergence; details: for Plant response rating (0 to 100), Foxtail, Giant: visual evaluation after 12 to 14 days
Excerpt: as §1, §2

[9] = test system: common ragweed (Ambrosia elatior); assay: Test C preemergence; details: preemergence
Excerpt: as §1, §2

[10] = test system: pigweed (Amaranthus retroflexus); assay: Test C preemergence; details: preemergence
Excerpt: as §1, §2

[11] = test system: Surinam grass (Brachiaria decumbens); assay: Test C preemergence; details: for Plant response rating (0 to 100), Surinam grass: visual evaluation after 12 to 14 days
Excerpt: as §1, §2

[12] = test system: johnsongrass (Sorghum halepense); assay: Test C preemergence; details: for Plant response rating (0 to 100), Johnsongrass: visual evaluation after 12 to 14 days
Excerpt: as §1, §2

[13] = test system: Nightshade; assay: Test C preemergence
Excerpt: as §1, §2

[14] = test system: corn (Zea mays); assay: Test C preemergence; details: for Plant response rating (0 to 100), Corn: visual evaluation after 12 to 14 days
Excerpt: as §1, §2

[15] = test system: cocklebur (Xanthium strumarium); assay: Test B postemergence; details: 13 to 15 days
Summary of the method: (§3)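 Pre: seeded pots sprayed, chemical in non-phytotoxic solvent/surfactant mix. Post: plants 2–18 cm, 1–4 leaf, same formulation. Greenhouse 13–15 d; visual % control vs untreated, 0–100 scale.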

[16] = test system: wild oat (Avena fatua); assay: Test B postemergence; details: 13 to 15 days
Summary of the method: as §3

[17] = test system: lambsquarters (Chenopodium album); assay: Test B postemergence; details: 13 to 15 days
Summary of the method: as §3

[18] = test system: crabgrass (Digitaria sanguinalis); assay: Test B postemergence; details: 13 to 15 days
Summary of the method: as §3

[19] = test system: Sunflower; assay: Test C preemergence; details: Rate 500 g/ha, visual evaluation after 12 to 14 days
[20] = Rate 500 g/ha, visual evaluation after 12 to 14 days
[21] = Rate 125 g/ha, scale 0 to 100, 0 no effect, 100 complete control
[22] = Rate 250 g/ha, scale 0 to 100, 0 no effect, 100 complete control
[23] = Rate 62 g/ha, scale 0 to 100, 0 no effect, 100 complete control
[24] = preemergence, Rate 31 g/ha, scale 0 to 100
[25] = preemergence, Rate 125 g/ha, scale 0 to 100, 0 no effect, 100 complete control
[26] = Rate 125 g/ha, scale 0 (no effect) to 100 (complete control)
[27] = Rate 500 g/ha, scale 0 to 100, 0 is no effect, 100 is complete control

CC(C)Oc1cccc(N2CCC(n3ccc(C(C)(C)C)n3)C2=O)c1 (stereo not shown) [Compound 70]
Plant response rating, Velvetleaf ([1]; Rate 31 g/ha, scale 0 to 100): 0 | Plant response rating (0 to 100), Velvetleaf [1, 20]: 10 | Plant response rating, Velvetleaf [1, 21]: 0 | Plant response rating, Velvetleaf [1, 22]: 0 | Plant response rating, Kochia [2, 23]: 80 | Plant response rating, Kochia [2, 24]: 0 | Plant response rating (0 to 100), Kochia ([2]; preemergence, Rate 250 g/ha): 100 | Plant response rating (0 to 100), Kochia ([2]; preemergence, Rate 500 g/ha): 100 | Plant response rating, Kochia [2, 25]: 90 | Plant response rating, Cocklebur [3, 23]: 0 | Plant response rating, Cocklebur [3, 24]: 0 | Plant response rating (0 to 100), Cocklebur ([3]; preemergence, Rate 250 g/ha): 0 | Plant response rating (0 to 100), Cocklebur ([3]; preemergence, Rate 500 g/ha): 20 | Plant response rating, Cocklebur [3, 25]: 0 | Plant response rating, Cupgrass, Woolly [4, 23]: 70 | Plant response rating, Cupgrass, Woolly [4, 24]: 0 | Plant response rating (0 to 100), Cupgrass, Woolly ([4]; preemergence, Rate 250 g/ha): 100 | Plant response rating (0 to 100), Cupgrass, Woolly ([4]; preemergence, Rate 500 g/ha): 100 | Plant response rating, Cupgrass, Woolly [4, 25]: 100 | Plant response rating, Bermudagrass [5, 23]: 100 | Plant response rating, Bermudagrass [5, 24]: 80 | Plant response rating (0 to 100 where 0 is no effect and 100 is complete control), Bermudagrass ([5]; preemergence, Rate 250 g/ha): 100 | Plant response rating (0 to 100 where 0 is no effect and 100 is complete control), Bermudagrass ([5]; preemergence, Rate 500 g/ha): 100 | Plant response rating, Bermudagrass [5, 25]: 100 | Plant response rating, Lambsquarters ([6]; Rate 62 g/ha): 100 | Plant response rating (0 to 100), Lambsquarters ([6]; preemergence, Rate 500 g/ha, visual evaluation after 12 to 14 days): 100 | Plant response rating, Lambsquarters ([6]; preemergence, Rate 125 g/ha): 100 | Plant response rating, Lambsquarters ([6]; preemergence, Rate 250 g/ha): 100 | Plant response rating, Soybean ([7]; Rate 31 g/ha, scale 0 to 100): 0 | Plant response rating (0 to 100), Soybean [7, 20]: 20 | Plant response rating, Soybean [7, 21]: 10 | Plant response rating, Soybean [7, 22]: 20 | Plant response rating, Foxtail, Giant [8, 23]: 100 | Plant response rating, Foxtail, Giant [8, 24]: 0 | Plant response rating (0 to 100), Foxtail, Giant ([8]; preemergence, Rate 250 g/ha): 100 | Plant response rating (0 to 100), Foxtail, Giant ([8]; preemergence, Rate 500 g/ha): 100 | Plant response rating, Foxtail, Giant [8, 25]: 100 | Plant response rating, Ragweed, Common ([9]; Rate 31 g/ha, scale 0 to 100): 0 | Plant response rating (0 to 100), Ragweed, Common [9, 20]: 100 | Plant response rating, Ragweed, Common [9, 21]: 60 | Plant response rating, Ragweed, Common [9, 22]: 80 | Plant response rating, Pigweed ([10]; Rate 31 g/ha, scale 0 to 100): 0 | Plant response rating (0 to 100), Pigweed [10, 20]: 100 | Plant response rating, Pigweed [10, 21]: 20 | Plant response rating, Pigweed [10, 22]: 0 | Plant response rating, Surinam grass [11, 23]: 60 | Plant response rating, Surinam grass [11, 24]: 20 | Plant response rating (0 to 100), Surinam grass ([11]; preemergence, Rate 250 g/ha): 70 | Plant response rating (0 to 100), Surinam grass ([11]; preemergence, Rate 500 g/ha): 80 | Plant response rating, Surinam grass [11, 25]: 70 | Plant response rating, Johnsongrass [12, 23]: 0 | Plant response rating, Johnsongrass [12, 24]: 0 | Plant response rating (0 to 100), Johnsongrass ([12]; preemergence, Rate 250 g/ha): 50 | Plant response rating (0 to 100), Johnsongrass ([12]; preemergence, Rate 500 g/ha): 70 | Plant response rating, Johnsongrass [12, 25]: 10 | Plant response rating, Nightshade ([13]; Rate 31 g/ha, scale 0 to 100): 20 | Plant response rating, Nightshade [13, 23]: 30 | Plant response rating, Nightshade [13, 21]: 50 | Plant response rating, Nightshade [13, 22]: 70 | Plant response rating, Corn [14, 23]: 0 | Plant response rating, Corn [14, 24]: 0 | Plant response rating (0 to 100), Corn ([14]; preemergence, Rate 250 g/ha): 0 | Plant response rating (0 to 100), Corn ([14]; preemergence, Rate 500 g/ha): 20 | Plant response rating, Corn [14, 25]: 0 | Plant response rating, Cocklebur [15, 26]: 0 | Plant response rating, Cocklebur [15, 27]: 0 | Plant response rating, Wild Oat [16, 26]: 0 | Plant response rating, Wild Oat [16, 27]: 0 | Plant response rating, Lambsquarters [17, 26]: 0 | Plant response rating, Lambsquarters [17, 27]: 0 | Plant response rating, Crabgrass [18, 26]: 0 | Plant response rating, Crabgrass [18, 27]: 0 | Plant response rating (0 to 100), Sunflower [19]: 60
